In patent US20180171411A1, “GFRalpha1 AS A BIOMARKER FOR CISPLATIN-INDUCED CHEMORESISTANCE AND METASTASIS” (THE BOARD OF REGENTS OF THE UNIVERSITY OF TEXAS SYSTEM, priority 2015, published 2018):

Tests used:
[1] = system: GFRα1-overexpressing MG-63 clone #4; assay: Colony-forming assay in the presence of cisplatin; assay type: cell-based, human; conditions: cisplatin 20 μM 10 days; 3-MA (10 μM), Baf (100 nM), CQ (30 μg/ml)
Source text: FIG. 3. […] Scale bar, 20 μm. […] Scale bar, 20 μm. […] Scale bar, 20 μm.

MG-63/GFRα1 tumors = assay: MG-63/GFRα1 xenograft in BALB/c nude mice; assay type: in vivo; conditions: CQ 60 mg/kg, cisplatin 3 mg/kg, once a week
Protocol: FIG. 5. GFRα1-mediated autophagy promotes chemoresistance and tumor growth in vivo. (a) BALB/c nude mice (n =40) were injected with MG-63 cells that were transfected with either control or GFRα1 expressing vector. Tumor volume was measured every 3 or 4 days. Data are shown as mean±SEM. ** p<0.05. (b) BALB/c nude mice (n=20) were injected with MG-63 cells that were transfected with either control or GFRα1 shRNA. Tumor volume was measured every 3 or 4 days. Data are shown as mean±SEM. ** p<0.05. (c) Tumors that were generated from mice injected with MG-63 cells containing GFRα1 expressing vector were directly injected with PBS, CQ, cisplatin, or cisplatin+CQ. Tumor volume was measured every 4 days. Data are shown as mean±SEM. ** p<0.05 vs PBS, CQ, or cisplatin-treated tumors. (d) Left, representative images of immunofluorescence staining of HMGB1 in a section from tumors generated from mice injected with MG-63 cells containing GFRα1 expressing vector and then treated with PBS, CQ, cisplatin, or cisplatin+CQ. Right, quantitative analysis of percentage of cytoplasmic HMGB1-positive cells in HMGB1-positive tumors. The values are represented as a mean±s.d.m. (n=3). ** denotes p<0.05 by t-test. (e) Left, representative images of TUNEL-positive cells in a section from tumors generated from mice injected with MG-63 cells containing GFRα1 expressing vector and then treated with PBS, CQ, cisplatin, or cisplatin+CQ. Right, quantitative analysis of percentage of TUNEL-positive cells in HMGB1-positive tumors. The values are represented as a mean±s.d.m. (n=3). ** denotes p<0.05 by t-test. (0 Survival rate of mice injected with MG-63 cells containing GFRα1 expressing vector and then treated with either cisplatin or cisplatin+CQ. (g) Representative images of immunohistochemical staining of GFRα1 in a section from human osteosarcoma patient before and after cisplatin treatment. (h) Representative images of immunofluorescence staining of GFRα1 and HMGB1 in a section from human osteosarcoma patient before and after cisplatin treatment.
Tumor formation in nude mice. The mice used in this study were 6-week-old female BALB/c nude mice purchased from Orient Bio Inc. (Seongnam, Korea). […] The tumor size was measured with a caliper every 3 or 4 days. […] The tumor size was measured with a caliper every 4 days. […] were calculated from caliper measurements of tumor dimensions in mm using the formula for a prolate ellipsoid: (L×W^2)/2 where L is the longer of the two-measurements.
Statistical analysis. Survival data was analyzed by the Kaplan-Meier and log-rank test with GraphPad Prism v5.04 (GraphPad Software, La Jolla Calif.). Plating efficiency (PE, %)=(Number of colonies counted/Number of cells plated)×100. […] All values are expressed as the mean±standard deviation (SD). […]

[2] = system: Src/AMPK signaling in MG-63 cells; assay: Immunoblot of Src/AMPK/mTOR signaling; assay type: cell-based, human; conditions: then cisplatin 20 μM 24 hr; for LC3-II expression: inhibitor
Protocol: FIG. 4. GFRα1 regulates autophagy by Src/AMPK signaling in osteosarcoma cells. (a-b) Immunoblot analysis of osteosarcoma cell lysates with antibodies specific for GFRα1, p-Src, Src, p-AMPK, AMPK, p-mTOR, mTOR, p-p70 S6Kinase, Beclin 1, HMGB1, LC3, and β-actin. (a) MG-63 and cells were treated with cisplatin (20 μM) for 24 hr. (b) Control and GFRα1-deficient MG-63 cells were treated with cisplatin (20 μM) for 24 hr. (c-e) Immunoblot analysis of osteosarcoma cell lysates with antibodies specific for GFRα1, p-Src, Src, p-AMPK, AMPK, LC3, and β-actin. (c) Control and Src-deficient MG-63 cells were treated with cisplatin (20 μM) for 24 hr. (d) MG-63 cells were cultured in the presence or absence of PP1 (5 μM) and then treated with cisplatin (20 μM) for 24 hr. (e) MG-63 cells were cultured in the presence or absence of Compound C and then treated with cisplatin (20 μM) for 24 hr. (f) Cell viability of MG-63 cells after cisplatin treatment in the presence of PP1. MG-63 cells were cultured with DMSO or PP1 (2, 5 μM) and then treated with cisplatin (20 μM) for 24 hr. Cell viability was measured using the WST-1 assay. The values are represented as a mean±s.d.m. (n=3). ** denotes p<0.05 by t-test. (g) Cell viability of MG-63 cells after cisplatin treatment in the presence of Compound C. MG-63 cells were cultured with DMSO or Compound C (5, 10 μM) and then treated with cisplatin (20 μM) for 24 hr. Cell viability was measured using the WST-1 assay. The values are represented as a mean±s.d.m. (n=3). ** denotes p<0.05 by t-test.
(§1) Immunoblotting. Cells were washed with PBS and lysed in RIPA Buffer (Pierce, Rockford, Ill.). The protein content was determined using a dye-binding microassay (Bio-Rad, Hercules, Calif.), and 10-50 μg protein per lane was electrophoresed on 4-12% SDS polyacrylamide gels. Proteins were blotted onto Hybond ECL membranes (Amersham Pharmacia Biotech, Piscataway, N.J.). Two protein ladders were used for molecular weight determination (GenDEPOT, Barker, Tex.). The blotted proteins were detected using an enhanced chemiluminescence detection system (iNtRON, Seoul, Korea). Data were quantified and analyzed with Image-J software.

[3] = system: GFRα1 expression in MG-63 and U-2 OS cells; assay: Immunoblot of GFRα1 expression after chemotherapeutic agents; assay type: cell-based, human; conditions: doxorubicin 5 μM, cisplatin 20 μM, methotrexate 1 mM, 24 hr
Protocol: FIG. 1. Cisplatin induces GFRα1 expression in osteosarcoma cells. (a-c) Immunoblot analysis of osteosarcoma cell lysates with antibodies specific for GFRα1 and β-actin. (a) MG-63 and U-2 OS cells were treated with doxorubicin (5 μM), cisplatin (20 μM), or methotrexate (1 mM) for 24 hr. Immunoblot analysis of GFRα1 (left) and quantification of GFRα1 expression (right) after treatment of chemotherapeutic agents. (b) MG-63 and U-2 OS cells were treated with different concentrations of cisplatin for 24 hr. (c) MG-63 and U-2 OS cells were treated with cisplatin (20 μM) and collected at the indicated time. (d and e) Quantitative real-time PCR of GFRα1 mRNA expression after cisplatin treatment. Representative images (top) and quantitative analysis (bottom) of GFRα1 mRNA expression. The values are presented as a mean±s.d.m (n=3). ** denotes p<0.05 by t-test. (d) MG-63 and U-2 OS cells were treated with different concentrations of cisplatin for 24 hr. (e) MG-63 and U-2 OS cells were treated with cisplatin (20 μM) and collected at the indicated time.
as §1

[4] = system: GFRα1-deficient MG-63 and U-2 OS cells; assay: WST-1 cell viability of GFRα1-deficient (siRNA) osteosarcoma cells; assay type: cell-based, human; conditions: GFRα1 siRNA 48 h, then agent 24 h
Protocol: FIG. 6. Cell viability of GFRα1-deficient osteosarcoma cells after treatment of chemotherapeutic agents. MG-63 and U-2 OS cells were transfected with either control siRNA or GFRα1 siRNA for 48 h and then treated with different concentrations of doxorubicin, cisplatin, or methotrexate for 24 h. Cell viability was measured using the WST-1 assay. The values are represented as a mean±s.d.m. (n=3). ** denotes P<0.05 by t-test. (a) MG-63 cells. (b) U-2 OS cells.
Small interfering RNA (siRNA)-based Experiments. Human GFRα1 siRNA, Beclin 1 siRNA, HMGB1 siRNA, AMPK siRNA, c-Src siRNA, NFκB p50 siRNA, APE siRNA and Negative (control) siRNA were purchased from Santa Cruz Biotechnology. Cell lines were transiently transfected with siRNA duplexes using Lipofectamine® RNAiMAX (Life Technologies) according to manufacturer's instructions.
Cell viability assays. WST-1 cell viability assay reagent was purchased from Roche. Equal numbers of cells were seeded in triplicate wells in 48-well plates and maintained in growth medium containing 10% FBS). Cells were cultured with PBS, GDNF (50 ng/mL), GDNF (50 ng/ml)+cisplatin (20 μM), or cisplatin (20 μM) in the presence of serum for 24 hr. Cells were also preincubated with inhibitors (3-MA, PP1, Compound C, Baf and CQ) for 1 hr before stimulating with PBS, GDNF, GDNF+cisplatin, or cisplatin. WST-1 reagent was then treated to the cells at the indicated times and incubated for 2 hr at 37° C. Cell viability was determined by measuring the absorbance after adding WST-1. The spectrophotometric absorbance of the samples was measured using an Ultra Multifunctional Microplate Reader (Tecan, Durham, N.C.) at 450 nm. Experiments were done at least in triplicate using separate cultures.

| Compound | LC3-II expression [2] | level of GFRα1 expression [3] | cell proliferation of GFRα1-deficient cells compared to control cells [4] | also measured |
| --- | --- | --- | --- | --- |
| CCN(CC)CCCC(C)Nc1ccnc2cc(Cl)ccc12 (centres unmarked) [CQ, chloroquine] |  |  |  | number of colonies [1]: effectively reduced; tumor progression (MG-63/GFRα1 tumors): allowed the tumors to survive; tumor volume compared to PBS-treated mice (MG-63/GFRα1 tumors): decreased |
| Cc1ccc(-c2nn(C(C)(C)C)c3ncnc(N)c23)cc1 [PP1] | decreased |  |  | AMPK phosphoryation ([2]; PP1 5 μM): decreased |
| c1cc(-c2cnn3cc(-c4ccc(OCCN5CCCCC5)cc4)cnc23)ccn1 [compound C] | decreased |  |  | Src phosphorylation ([2]; Compound C): no effect |
| COc1cccc2c1C(=O)c1c(O)c3c(c(O)c1C2=O)C[C@@](O)(C(=O)CO)C[C@@H]3O[C@H]1C[C@H](N)[C@H](O)[C@H](C)O1 [doxorubicin] |  | no or little effect | little or no effect |  |
| CN(Cc1cnc2nc(N)nc(N)c2n1)c1ccc(C(=O)N[C@@H](CCC(=O)O)C(=O)O)cc1 [methotrexate] |  | no or little effect | little or no effect |  |
